We go through 25 compounds from patent US11420958B2, “Aryl and heteroaryl substituted indole compounds” (BRISTOL-MYERS SQUIBB COMPANY, priority 2017, dated 2022).

What all share (format): cell-based
Assay [1] addresses human TLR7 (Homo sapiens (Human), UniProt Q9NYK1). The assay can be described thus: TLR7 inhibition reporter assay (HEK-Blue, SEAP). Conditions: HEK-Blue cells overexpressing human TLR7, gardiquimod 7.5 μM stimulation. The method, boiled down:
(§1)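 HEK-Blue cells expressing human TLR7, TLR8 or TLR9 with NF-κB/AP-1-driven SEAP reporter; compounds 0.05 nM–50 μM, 30 min pre-treatment at room temperature. Stimulated with gardiquimod 7.5 μM (TLR7), R848 15.9 μM (TLR8) or ODN2006 5 nM (TLR9), 22 h at 37 °C; % inhibition of SEAP signal relative to agonist+DMSO and known-inhibitor wells.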
Background: Reporter assays use an easily measured gene product as a stand-in for the process of interest.

Assay [2] concerns the target human TLR8 (Homo sapiens (Human), UniProt Q9NR97). The experiment in a line: TLR8 inhibition reporter assay (HEK-Blue, SEAP). Conditions: HEK-Blue cells overexpressing human TLR8, R848 15.9 μM stimulation. The method, boiled down: as §1
Assay [3] concerns the target human TLR9 (Homo sapiens (Human), UniProt Q9NR96). The experiment in a line: TLR9 inhibition reporter assay (HEK-Blue, SEAP). As to conditions: HEK-Blue cells overexpressing human TLR9, ODN2006 5 nM stimulation. In a few lines:
as §1

Chain of human TLR9 (Q9NR96 26-1032): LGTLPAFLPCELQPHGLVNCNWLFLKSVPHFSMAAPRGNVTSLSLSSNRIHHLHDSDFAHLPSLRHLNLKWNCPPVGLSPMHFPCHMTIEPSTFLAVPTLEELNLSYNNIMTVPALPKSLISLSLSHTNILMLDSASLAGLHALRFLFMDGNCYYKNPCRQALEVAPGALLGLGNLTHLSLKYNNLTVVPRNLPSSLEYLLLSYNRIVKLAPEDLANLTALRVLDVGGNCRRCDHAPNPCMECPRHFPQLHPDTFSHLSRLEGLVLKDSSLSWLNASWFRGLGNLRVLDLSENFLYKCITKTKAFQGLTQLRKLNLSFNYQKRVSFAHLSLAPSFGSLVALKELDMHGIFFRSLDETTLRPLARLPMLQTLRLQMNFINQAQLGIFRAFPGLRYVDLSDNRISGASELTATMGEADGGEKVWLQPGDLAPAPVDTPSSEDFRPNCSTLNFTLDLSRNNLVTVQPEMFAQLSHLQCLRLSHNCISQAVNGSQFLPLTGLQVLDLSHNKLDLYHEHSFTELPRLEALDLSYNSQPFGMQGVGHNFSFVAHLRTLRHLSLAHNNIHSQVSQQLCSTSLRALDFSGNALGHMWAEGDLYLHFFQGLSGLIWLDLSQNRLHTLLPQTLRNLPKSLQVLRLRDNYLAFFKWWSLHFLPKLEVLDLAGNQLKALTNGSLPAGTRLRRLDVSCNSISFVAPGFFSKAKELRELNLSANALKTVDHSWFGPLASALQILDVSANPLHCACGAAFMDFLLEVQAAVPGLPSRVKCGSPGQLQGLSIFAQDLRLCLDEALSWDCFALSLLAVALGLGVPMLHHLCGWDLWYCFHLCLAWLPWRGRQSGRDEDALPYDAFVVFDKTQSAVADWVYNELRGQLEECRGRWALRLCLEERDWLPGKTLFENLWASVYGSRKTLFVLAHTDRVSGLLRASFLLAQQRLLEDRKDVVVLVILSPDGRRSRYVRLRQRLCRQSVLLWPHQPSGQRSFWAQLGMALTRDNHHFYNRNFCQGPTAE
Chain of human TLR8 (Q9NR97 27-1041): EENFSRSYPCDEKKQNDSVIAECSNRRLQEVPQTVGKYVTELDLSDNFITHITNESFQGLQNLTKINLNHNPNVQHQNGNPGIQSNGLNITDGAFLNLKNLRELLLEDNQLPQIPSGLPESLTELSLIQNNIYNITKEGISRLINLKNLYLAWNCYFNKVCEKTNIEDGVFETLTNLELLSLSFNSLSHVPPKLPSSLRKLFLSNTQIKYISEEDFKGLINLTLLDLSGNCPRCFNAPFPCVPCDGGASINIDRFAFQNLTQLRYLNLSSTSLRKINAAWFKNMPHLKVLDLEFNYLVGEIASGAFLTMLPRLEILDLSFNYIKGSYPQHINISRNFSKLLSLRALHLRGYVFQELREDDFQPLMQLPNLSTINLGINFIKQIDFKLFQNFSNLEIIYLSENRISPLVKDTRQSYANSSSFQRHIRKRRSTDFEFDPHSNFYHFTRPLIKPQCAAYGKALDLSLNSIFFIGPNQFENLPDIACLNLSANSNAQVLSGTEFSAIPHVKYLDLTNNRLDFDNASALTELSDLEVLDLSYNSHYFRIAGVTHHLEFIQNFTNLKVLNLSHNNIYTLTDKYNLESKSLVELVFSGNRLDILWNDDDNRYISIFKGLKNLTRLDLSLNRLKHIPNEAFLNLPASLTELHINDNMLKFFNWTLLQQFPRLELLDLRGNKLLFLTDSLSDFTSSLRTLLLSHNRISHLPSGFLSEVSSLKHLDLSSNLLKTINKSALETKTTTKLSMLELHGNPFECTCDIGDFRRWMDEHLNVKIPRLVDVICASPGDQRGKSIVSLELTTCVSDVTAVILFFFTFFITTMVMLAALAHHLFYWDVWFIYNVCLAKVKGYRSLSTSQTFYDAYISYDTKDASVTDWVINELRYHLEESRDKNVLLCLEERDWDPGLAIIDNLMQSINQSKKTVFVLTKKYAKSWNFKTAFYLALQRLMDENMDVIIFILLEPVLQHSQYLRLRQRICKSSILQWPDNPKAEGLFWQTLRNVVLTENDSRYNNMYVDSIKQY
Chain of human TLR7 (Q9NYK1 27-1049): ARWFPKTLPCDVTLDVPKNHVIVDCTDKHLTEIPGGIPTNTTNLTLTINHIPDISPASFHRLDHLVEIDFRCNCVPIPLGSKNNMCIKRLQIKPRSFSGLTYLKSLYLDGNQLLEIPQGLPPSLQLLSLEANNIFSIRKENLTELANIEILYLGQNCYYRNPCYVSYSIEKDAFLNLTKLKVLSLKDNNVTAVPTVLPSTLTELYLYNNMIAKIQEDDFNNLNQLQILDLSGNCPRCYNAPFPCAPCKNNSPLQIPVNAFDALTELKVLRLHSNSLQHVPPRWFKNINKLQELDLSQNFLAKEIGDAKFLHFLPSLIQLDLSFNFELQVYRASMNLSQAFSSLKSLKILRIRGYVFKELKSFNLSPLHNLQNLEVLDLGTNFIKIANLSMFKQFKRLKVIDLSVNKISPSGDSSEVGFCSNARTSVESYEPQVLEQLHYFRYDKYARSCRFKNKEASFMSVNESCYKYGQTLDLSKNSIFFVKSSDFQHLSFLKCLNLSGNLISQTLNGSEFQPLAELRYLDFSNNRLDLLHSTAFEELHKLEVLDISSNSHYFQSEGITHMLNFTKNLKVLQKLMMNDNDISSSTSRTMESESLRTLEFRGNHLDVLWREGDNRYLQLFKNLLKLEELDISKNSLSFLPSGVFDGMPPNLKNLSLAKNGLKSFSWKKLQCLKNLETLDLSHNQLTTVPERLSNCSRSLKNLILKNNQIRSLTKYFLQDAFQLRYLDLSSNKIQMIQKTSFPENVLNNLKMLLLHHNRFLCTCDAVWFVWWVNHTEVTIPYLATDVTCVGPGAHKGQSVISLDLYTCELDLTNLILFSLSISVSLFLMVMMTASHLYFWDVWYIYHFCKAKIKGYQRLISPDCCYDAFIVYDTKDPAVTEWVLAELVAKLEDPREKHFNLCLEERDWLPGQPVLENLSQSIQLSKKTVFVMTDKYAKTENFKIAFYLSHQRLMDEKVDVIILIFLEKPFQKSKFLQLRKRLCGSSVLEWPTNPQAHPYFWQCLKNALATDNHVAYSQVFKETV

Broadly, the IC50 is the concentration needed to halve the response being measured. Low readings indicate higher potency, high ones lower potency. For `COc1ccc(-c2[nH]c3ccc(-c4ccc(N5CCN(C)CC5)nc4)cc3c2C(C)C)cc1OC` [Example 392, 2-(3,4-dimethoxyphenyl)-3-isopropyl-5-(6-(4-methylpiperazin-1-yl)pyridin-3-yl)-1H-indole], the values for the IC50 in assay [1], in assay [2] and in assay [3] were 32 nM, 7.5 nM and 1070 nM, respectively.
On the same counts, the results for `COc1ccc(-c2[nH]c3ccc(-c4nnc(CNCCOC(C)C)o4)cc3c2C(C)C)cc1OC` [Example 114, N-((5-(2-(3,4-dimethoxyphenyl)-3-isopropyl-1H-indol-5-yl)-1,3,4-oxadiazol-2-yl)methyl)-2-isopropoxyethan-1-amine] are 386 nM, 530 nM and above 50000 nM.
On the same counts, the results for `COc1ccc(-c2[nH]c3ccc(-c4ccnc(C(=O)N5CCNCC5)c4)cc3c2C(C)C)cc1OC` [Example 14, (4-(2-(3,4-dimethoxyphenyl)-3-isopropyl-1H-indol-5-yl)pyridin-2-yl)(piperazin-1-yl)methanone] are 1070 nM, 1040 nM and above 50000 nM.
The like results for `Cc1cc(-c2[nH]c3ccc(-c4cc5c(s4)CN(C(=O)C[C@H](C)O)CC5)cc3c2C(C)C)cc(C)n1` [Example 351, (S)-1-(2-(2-(2,6-dimethylpyridin-4-yl)-3-isopropyl-1H-indol-5-yl)-4,7-dihydrothieno[2,3-c]pyridin-6(5H)-yl)-3-hydroxybutan-1-one] were, in that order, 64 nM, 46 nM and 32900 nM.
As for `COc1ccc(-c2[nH]c3ccc(-c4nnc(N5CCNCC5)o4)cc3c2C(C)C)cc1OC` [Example 105, 2-(2-(3,4-dimethoxyphenyl)-3-isopropyl-1H-indol-5-yl)-5-(piperazin-1-yl)-1,3,4-oxadiazole], the results for the 50% inhibitory concentration (IC50) in assay [1], in assay [2] and in assay [3] were 19 nM, 8.8 nM and 1070 nM, respectively.
Consider `CNCCN1CCC(c2nnc(-c3ccc4[nH]c(-c5ccc(OC)c(OC)c5)c(CC(F)(F)F)c4c3)o2)CC1` [Example 67, 2-(4-(5-(2-(3,4-dimethoxyphenyl)-3-(2,2,2-trifluoroethyl)-1H-indol-5-yl)-1,3,4-oxadiazol-2-yl)piperidin-1-yl)-N-methylethan-1-amine], for which the IC50 in assay [1] came to 244 nM; in assay [2] it was 57 nM; in assay [3], 316 nM.
The like results for `Cc1cc(-c2[nH]c3ccc(-c4nnc(C5CN6CCC5CC6)o4)cc3c2C(C)C)cc(C)n1` (stereo not drawn) [Example 297, 2-(2-(2,6-dimethylpyridin-4-yl)-3-isopropyl-1H-indol-5-yl)-5-(quinuclidin-3-yl)-1,3,4-oxadiazole] were, in that order, 6.2 nM, 3.1 nM and 111 nM.
In the case of `Cc1cc(-c2[nH]c3ccc(-c4ccc(N5CCCC5)nc4)cc3c2C(C)C)cc(C)n1` [Example 336, 2-(2,6-dimethylpyridin-4-yl)-3-isopropyl-5-(6-(pyrrolidin-1-yl)pyridin-3-yl)-1H-indole], the IC50 is 41 nM in assay [1], 15 nM in assay [2] and 2340 nM in assay [3].
On the same counts, the results for `COc1ccc(-c2[nH]c3ccc(-c4cccc(C(=O)NCCC5CCCN5C)c4)cc3c2CC(F)(F)F)cc1OC` (stereo not drawn) [Example 25, 3-(2-(3,4-dimethoxyphenyl)-3-(2,2,2-trifluoroethyl)-1H-indol-5-yl)-N-(2-(1-methylpyrrolidin-2-yl)ethyl)benzamide] are 190 nM, 88 nM and 1380 nM.
Take `COc1ccc(-c2[nH]c3ccc(-c4nnc(CCn5ccnc5)o4)cc3c2C(C)C)cc1OC` [Example 47, 2-(2-(1H-imidazol-1-yl)ethyl)-5-(2-(3,4-dimethoxyphenyl)-3-isopropyl-1H-indol-5-yl)-1,3,4-oxadiazole]: the IC50 is 194 nM in assay [1], 82 nM in assay [2] and 19100 nM in assay [3].
On the same counts, the results for `COc1ccc(-c2[nH]c3ccc(-c4ccc(OCCN5CCCC5)cc4)cc3c2C(C)C)cc1OC` [Example 412, 2-(3,4-dimethoxyphenyl)-3-isopropyl-5-(4-(2-(pyrrolidin-1-yl)ethoxy)phenyl)-1H-indole] are 34 nM, 26 nM and above 50000 nM.
On the same counts, the results for `Cc1cc(-c2[nH]c3ccc(-c4nnc(CCN(C)C)o4)cc3c2C(C)C)cc(C)n1` [Example 270, 2-(5-(2-(2,6-dimethylpyridin-4-yl)-3-isopropyl-1H-indol-5-yl)-1,3,4-oxadiazol-2-yl)-N,N-dimethylethan-1-amine] are 10 nM, 1 nM and 298 nM.
On the same counts, the results for `CC(C)c1c(-c2ccnc3[nH]ncc23)[nH]c2ccc(-c3nnc(C4CCNCC4)o3)cc12` [Example 102, 2-(3-isopropyl-2-(1H-pyrazolo[3,4-b]pyridin-4-yl)-1H-indol-5-yl)-5-(piperidin-4-yl)-1,3,4-oxadiazole] are 125 nM, 11 nM and 611 nM.
Turning to `COc1ccc(-c2[nH]c3ccc(-c4cccc(C(=O)NCCN5CCOCC5)c4)cc3c2CC(F)(F)F)cc1OC` [Example 29, 3-(2-(3,4-dimethoxyphenyl)-3-(2,2,2-trifluoroethyl)-1H-indol-5-yl)-N-(2-morpholinoethyl)benzamide], the IC50 stood at 416 nM in assay [1], 55 nM in assay [2] and 7290 nM in assay [3].
`Cc1cc(-c2[nH]c3ccc(-c4nnc(CCCN(C)C)o4)cc3c2C(C)C)ccn1` [Example 77, 3-(5-(3-isopropyl-2-(2-methylpyridin-4-yl)-1H-indol-5-yl)-1,3,4-oxadiazol-2-yl)-N,N-dimethylpropan-1-amine]: the IC50 in assay [1] was determined as 29 nM; in assay [2] it was 1.7 nM; in assay [3] it was 695 nM.
Turning to `Cc1cc(-c2[nH]c3ccc(-c4cnc(N)cn4)cc3c2C(C)C)cc(C)n1` [Example 307, 5-(2-(2,6-dimethylpyridin-4-yl)-3-isopropyl-1H-indol-5-yl)pyrazin-2-amine], the IC50 worked out at 11 nM in assay [1], 18 nM in assay [2] and 21100 nM in assay [3].
`Cc1oc(-c2ccc3[nH]c(-c4ccnc5[nH]ncc45)c(C(C)C)c3c2)nc1C(=O)NCC1CCNC1` (stereo not drawn) [Example 212, 2-(3-isopropyl-2-(1H-pyrazolo[3,4-b]pyridin-4-yl)-1H-indol-5-yl)-5-methyl-N-(pyrrolidin-3-ylmethyl)oxazole-4-carboxamide]: the half-maximal inhibitory concentration (IC50) worked out at 1060 nM in assay [1], 109 nM in assay [2] and 12100 nM in assay [3].
On the same counts, the results for `CCc1c(-c2ccc(OC)c(OC)c2)[nH]c2ccc(-c3noc(CCOC)n3)cc12` [Example 451, 3-(2-(3,4-dimethoxyphenyl)-3-ethyl-1H-indol-5-yl)-5-(2-methoxyethyl)-1,2,4-oxadiazole] are 3980 nM, 1290 nM and above 50000 nM.
The like results for `COc1ccc(-c2[nH]c3ccc(-c4cccc(C(=O)N5CCN(C6CCN(C)CC6)CC5)c4)cc3c2CC(F)(F)F)cc1OC` [Example 37, (3-(2-(3,4-dimethoxyphenyl)-3-(2,2,2-trifluoroethyl)-1H-indol-5-yl)phenyl)(4-(1-methylpiperidin-4-yl)piperazin-1-yl)methanone] were, in that order, 405 nM, 139 nM and 2320 nM.
The like results for `Cc1cc(-c2[nH]c3ccc(-c4nnc([C@@H]5CCCNC5)o4)cc3c2C(C)C)ccn1` [Example 80, (R)-2-(3-isopropyl-2-(2-methylpyridin-4-yl)-1H-indol-5-yl)-5-(piperidin-3-yl)-1,3,4-oxadiazole] were, in that order, 19 nM, 1.2 nM and 592 nM.
As to `COc1ccc(-c2[nH]c3ccc(-c4nnc(CCN(C)C)o4)cc3c2C(C)C)cc1OC` [Example 43, 2-(5-(2-(3,4-dimethoxyphenyl)-3-isopropyl-1H-indol-5-yl)-1,3,4-oxadiazol-2-yl)-N,N-dimethylethan-1-amine], the IC50 in assay [1] amounted to 40 nM; in assay [2], 2 nM; in assay [3] it was 1460 nM.
Turning to `COc1ccc(-c2[nH]c3ccc(-c4nnc(CN5CC[C@H](NC(C)=O)C5)o4)cc3c2C(C)C)cc1OC` [Example 117, (S)—N-(1-((5-(2-(3,4-dimethoxyphenyl)-3-isopropyl-1H-indol-5-yl)-1,3,4-oxadiazol-2-yl)methyl)pyrrolidin-3-yl)acetamide], the IC50 is 704 nM in assay [1], 50 nM in assay [2] and above 50000 nM in assay [3].
`Cc1cc(-c2[nH]c3ccc(-c4nnc(CCCN(C)C)o4)cc3c2C(C)C)cc(C)n1` [Example 271, 3-(5-(2-(2,6-dimethylpyridin-4-yl)-3-isopropyl-1H-indol-5-yl)-1,3,4-oxadiazol-2-yl)-N,N-dimethylpropan-1-amine]: the IC50 turned out to be 6.3 nM in assay [1], 1.9 nM in assay [2] and 281 nM in assay [3].
The like results for `COc1ccc(-c2[nH]c3ccc(-c4ccnc(C(=O)NC5CCN(C(C)C)CC5)c4)cc3c2C(C)C)cc1OC` [Example 11, 4-(2-(3,4-dimethoxyphenyl)-3-isopropyl-1H-indol-5-yl)-N-(1-isopropylpiperidin-4-yl)picolinamide] were, in that order, 22 nM, 18 nM and 665 nM.
The like results for `Cc1cc(-c2[nH]c3ccc(-c4nnc(C5CCCN(C(C)C)C5)o4)cc3c2C(C)C)ccn1` (stereo not drawn) [Example 298, 2-(3-isopropyl-2-(2-methylpyridin-4-yl)-1H-indol-5-yl)-5-(1-isopropylpiperidin-3-yl)-1,3,4-oxadiazole] were, in that order, 25 nM, 2.7 nM and 437 nM.
